Source: US11807644B2 (PMV Pharmaceuticals, Inc., priority 2020, dated 2023)

Molecular target: T1, recombinant His-tag Y220C p53 DBD protein (Homo sapiens, UniProt P04637, Y220C)
T1 construct: recombinant His-tag Y220C p53 DBD protein (amino acids #˜94-312)
Experiment: In vitro DNA binding activity assay (TR-FRET): binding of His-tag Y220C p53 DBD to biotin-labeled consensus DNA
Assay type: biochemical
Conditions: SC150 = concentration to increase DNA binding by […], His-tag Y220C p53 DBD, biotin-labeled consensus DNA

Row | Compound | Y220C SC150 (μM)
1 | CN1CC[C@@H](Nc2cccc3c2cc(-c2noc(CNC(=O)c4ccc(N(C)C)cc4)n2)n3CC(F)(F)F)[C@@H](F)C1 [Compound 220B, 4-(dimethylamino)-N-{[3-(4-{[(3S,4R)-3-fluoro-1-methylpiperidin-4-yl]amino}-1-(2,2,2-trifluoroethyl)-1H-indol-2-yl)-1,2,4-oxadiazol-5-yl]methyl}benzamide] | * (* = 0 μM ≤ SC150 < 0.1 μM)
2 | O=C(NCc1nc(-c2cc3c(NC4CCN(C5CC5)CC4)cccc3n2CC(F)(F)F)no1)C1CC1 [Compound 164B, N-[(3-{4-[(1-cyclopropylpiperidin-4-yl)amino]-1-(2,2,2-trifluoroethyl)-1H-indol-2-yl}-1,2,4-oxadiazol-5-yl)methyl]cyclopropanecarboxamide] | * (* = 0 μM ≤ SC150 < 0.1 μM)
3 | CC(C)n1cnc(C(=O)NCc2nc(-c3cc4c(N[C@@H]5CCN(C)C[C@@H]5F)cccc4n3CC(F)(F)F)no2)c1 [Compound 232B, N-{[3-(4-{[(3S,4R)-3-fluoro-1-methylpiperidin-4-yl]amino}-1-(2,2,2-trifluoroethyl)-1H-indol-2-yl)-1,2,4-oxadiazol-5-yl]methyl}-1-(propan-2-yl)-1H-imidazole-4-carboxamide] | * (* = 0 μM ≤ SC150 < 0.1 μM)
4 | CN1CC[C@@H](Nc2cccc3c2cc(-c2noc(CNC(=O)c4ccn(CCC(=O)O)c4)n2)n3CC(F)(F)F)[C@@H](F)C1 [Compound 248B, 3-[3-({[3-(4-{[(3S,4R)-3-fluoro-1-methylpiperidin-4-yl]amino}-1-(2,2,2-trifluoroethyl)-1H-indol-2-yl)-1,2,4-oxadiazol-5-yl]methyl}carbamoyl)-1H-pyrrol-1-yl]propanoic acid] | * (* = 0 μM ≤ SC150 < 0.1 μM)
5 | CN1CC[C@@H](Nc2cccc3c2cc(-c2noc(CNC(=O)[C@H]4C[C@@H]4c4ccccc4)n2)n3CC(F)(F)F)[C@@H](F)C1 (racemic) [Compound 180B, (+/−)-(1R,2R)-N-{[3-(4-{[(3R,4S)-3-fluoro-1-methylpiperidin-4-yl]amino}-1-(2,2,2-trifluoroethyl)-1H-indol-2-yl)-1,2,4-oxadiazol-5-yl]methyl}-2-phenylcyclopropane-1-carboxamide] | * (* = 0 μM ≤ SC150 < 0.1 μM)
6 | CN1CC[C@@H](Nc2cccc3c2cc(-c2noc(CNC(=O)c4cn(C5(C)CCOCC5)cn4)n2)n3CC(F)(F)F)[C@@H](F)C1 [Compound 433B, N-{[3-(4-{[(3S,4R)-3-fluoro-1-methylpiperidin-4-yl]amino}-1-(2,2,2-trifluoroethyl)-1H-indol-2-yl)-1,2,4-oxadiazol-5-yl]methyl}-1-(4-methyloxan-4-yl)-1H-imidazole-4-carboxamide] | * (* = 0 μM ≤ SC150 < 0.1 μM)
7 | CN1CCC(Nc2cccc3c2cc(-c2nnc(CNc4cn[nH]c4)o2)n3CC(F)(F)F)CC1 [Compound 112B, N-(1-methylpiperidin-4-yl)-2-(5-{[(1H-pyrazol-4-yl)amino]methyl}-1,3,4-oxadiazol-2-yl)-1-(2,2,2-trifluoroethyl)-1H-indol-4-amine] | *** (*** = 0.5 μM ≤ SC150 < 1 μM)
8 | COC(=O)c1ccc(C(=O)NCc2nnc(-c3cc4c(NC5CCN(C)CC5)cccc4n3CC(F)(F)F)s2)cc1 [Compound 39B, methyl 4-{[(5-{4-[(1-methylpiperidin-4-yl)amino]-1-(2,2,2-trifluoroethyl)-1H-indol-2-yl}-1,3,4-thiadiazol-2-yl)methyl]carbamoyl}benzoate] | * (* = 0 μM ≤ SC150 < 0.1 μM)
9 | CC(C)NC[C@@H]1C[C@H]1C(=O)NCc1nc(-c2cc3c(N[C@@H]4CCN(C)C[C@@H]4F)cccc3n2CC(F)(F)F)no1 [Compound 246B, (1R,2R)-N-{[3-(4-{[(3S,4R)-3-fluoro-1-methylpiperidin-4-yl]amino}-1-(2,2,2-trifluoroethyl)-1H-indol-2-yl)-1,2,4-oxadiazol-5-yl]methyl}-2-{[(propan-2-yl)amino]methyl}cyclopropane-1-carboxamide] | * (* = 0 μM ≤ SC150 < 0.1 μM)
10 | COc1cccc(C(=O)NCc2nnc(-c3cc4c(N[C@H]5CCN(C)C[C@H]5F)cccc4n3CC(F)(F)F)o2)c1 (racemic) [Compound 119B, (+/−)-N-{[5-(4-{[(3R,4S)-3-fluoro-1-methylpiperidin-4-yl]amino}-1-(2,2,2-trifluoroethyl)-1H-indol-2-yl)-1,3,4-oxadiazol-2-yl]methyl}-3-methoxybenzamide] | ** (** = 0.1 μM ≤ SC150 < 0.5 μM)
11 | CN1CC[C@@H](Nc2cccc3c2cc(-c2nccs2)n3CC(F)(F)F)[C@@H](F)C1 (racemic) [Compound 93B, (+/−)-N-[(3R,4S)-3-fluoro-1-methylpiperidin-4-yl]-2-(1,3-thiazol-2-yl)-1-(2,2,2-trifluoroethyl)-1H-indol-4-amine] | *** (*** = 0.5 μM ≤ SC150 < 1 μM)
12 | CN1CC[C@@H](Nc2cccc3c2cc(-c2noc(CNC(=O)C4CCC4)n2)n3CC(F)(F)F)[C@@H](F)C1 [Compound 222B, N-{[3-(4-{[(3S,4R)-3-fluoro-1-methylpiperidin-4-yl]amino}-1-(2,2,2-trifluoroethyl)-1H-indol-2-yl)-1,2,4-oxadiazol-5-yl]methyl}cyclobutanecarboxamide] | * (* = 0 μM ≤ SC150 < 0.1 μM)

Other lines, results leading:

Row | Y220C SC150 (μM) | Compound
13 | * (* = 0 μM ≤ SC150 < 0.1 μM) | CCc1cc(C(=O)NCc2nc(-c3cc4c(N[C@@H]5CCN(C)C[C@@H]5F)cccc4n3CC(F)(F)F)no2)on1 [Compound 521B, 3-ethyl-N-{[3-(4-{[(3S,4R)-3-fluoro-1-methylpiperidin-4-yl]amino}-1-(2,2,2-trifluoroethyl)-1H-indol-2-yl)-1,2,4-oxadiazol-5-yl]methyl}-1,2-oxazole-5-carboxamide]
14 | * (* = 0 μM ≤ SC150 < 0.1 μM) | CN1CC[C@@H](Nc2cccc3c2cc(-c2noc(CNC(=O)c4cccc(N5CCCC5)c4)n2)n3CC(F)(F)F)[C@@H](F)C1 [Compound 263B, N-{[3-(4-{[(3S,4R)-3-fluoro-1-methylpiperidin-4-yl]amino}-1-(2,2,2-trifluoroethyl)-1H-indol-2-yl)-1,2,4-oxadiazol-5-yl]methyl}-3-(pyrrolidin-1-yl)benzamide]
15 | * (* = 0 μM ≤ SC150 < 0.1 μM) | COC(C)(C)c1cc(C(=O)NCc2nc(-c3cc4c(N[C@@H]5CCN(C)C[C@@H]5F)cccc4n3CC(F)(F)F)no2)cs1 [Compound 447B, N-{[3-(4-{[(3S,4R)-3-fluoro-1-methylpiperidin-4-yl]amino}-1-(2,2,2-trifluoroethyl)-1H-indol-2-yl)-1,2,4-oxadiazol-5-yl]methyl}-5-(2-methoxypropan-2-yl)thiophene-3-carboxamide]
16 | * (* = 0 μM ≤ SC150 < 0.1 μM) | CCOC1CCCC1n1ccc(C(=O)NCc2nc(-c3cc4c(N[C@@H]5CCN(C)C[C@@H]5F)cccc4n3CC(F)(F)F)no2)c1 (stereo in doubt) [Compound 376B, 1-[(1R,2R)-2-ethoxycyclopentyl]-N-{[3-(4-{[(3S,4R)-3-fluoro-1-methylpiperidin-4-yl]amino}-1-(2,2,2-trifluoroethyl)-1H-indol-2-yl)-1,2,4-oxadiazol-5-yl]methyl}-1H-pyrrole-3-carboxamide]
17 | * (* = 0 μM ≤ SC150 < 0.1 μM) | CN1CC[C@@H](Nc2cccc3c2cc(-c2noc(CNC(=O)c4csc(N)c4)n2)n3CC(F)(F)F)[C@@H](F)C1 [Compound 429B, 5-amino-N-{[3-(4-{[(3S,4R)-3-fluoro-1-methylpiperidin-4-yl]amino}-1-(2,2,2-trifluoroethyl)-1H-indol-2-yl)-1,2,4-oxadiazol-5-yl]methyl}thiophene-3-carboxamide]
18 | * (* = 0 μM ≤ SC150 < 0.1 μM) | CN1CCC(n2cc(C(=O)NCc3nc(-c4cc5c(N[C@@H]6CCN(C)C[C@@H]6F)cccc5n4CC(F)(F)F)no3)cn2)C1 (stereo partly drawn) [Compound 349B, N-{[3-(4-{1[(3S,4R)-3-fluoro-1-methylpiperidin-4-yl]amino}-1-(2,2,2-trifluoroethyl)-1H-indol-2-yl)-1,2,4-oxadiazol-5-yl]methyl}-1-(1-methylpyrrolidin-3-yl)-1H-pyrazole-4-carboxamide]
19 | * (* = 0 μM ≤ SC150 < 0.1 μM) | CN1CC[C@@H](Nc2cccc3c2cc(-c2noc(CNC(=O)c4ccn(C5CCOC5)c4)n2)n3CC(F)(F)F)[C@@H](F)C1 (stereo partly drawn) [Compound 323B, N-{[3-(4-{[(3S,4R)-3-fluoro-1-methylpiperidin-4-yl]amino}-1-(2,2,2-trifluoroethyl)-1H-indol-2-yl)-1,2,4-oxadiazol-5-yl]methyl}-1-(oxolan-3-yl)-1H-pyrrole-3-carboxamide]
20 | * (* = 0 μM ≤ SC150 < 0.1 μM) | CN1CC[C@@H](Nc2cccc3c2cc(-c2noc(CNC(=O)c4ccc(C5(C)CC5)s4)n2)n3CC(F)(F)F)[C@@H](F)C1 [Compound 446B]
21 | * (* = 0 μM ≤ SC150 < 0.1 μM) | CN1CC[C@@H](Nc2cccc3c2cc(-c2noc(CNC(=O)c4cnn(C5COC5)c4)n2)n3CC(F)(F)F)[C@@H](F)C1 [Compound 372B, N-{[3-(4-{[(3S,4R)-3-fluoro-1-methylpiperidin-4-yl]amino}-1-(2,2,2-trifluoroethyl)-1H-indol-2-yl)-1,2,4-oxadiazol-5-yl]methyl}-1-(oxetan-3-yl)-1H-pyrazole-4-carboxamide]
22 | * (* = 0 μM ≤ SC150 < 0.1 μM) | CCC(C)(C)n1ccc(C(=O)NCc2nc(-c3cc4c(N[C@@H]5CCN(C)C[C@@H]5F)cccc4n3CC(F)(F)F)no2)c1 [Compound 427B, N-{[3-(4-{[(3S,4R)-3-fluoro-1-methylpiperidin-4-yl]amino}-1-(2,2,2-trifluoroethyl)-1H-indol-2-yl)-1,2,4-oxadiazol-5-yl]methyl}-1-(2-methylbutan-2-yl)-1H-pyrrole-3-carboxamide]
